The NIST ThermoML archive (doi:10.1021/je900661c)
“And” between values parts separate entries of the source, which are not always exact repeats. Equal values may be shown once. ± gives the expanded uncertainty stated by the source.

Assay: molar heat capacity at constant pressure
Conditions: 5000 kPa, Liquid, thermal relaxation

Row | molar heat capacity at constant pressure (310 K) | molar heat capacity at constant pressure (315 K) | molar heat capacity at constant pressure (320 K) | molar heat capacity at constant pressure (325 K) | molar heat capacity at constant pressure (330 K) | molar heat capacity at constant pressure (335 K) | molar heat capacity at constant pressure (340 K) | SMILES | molar heat capacity at constant pressure (345 K) | molar heat capacity at constant pressure (350 K)
1 | 136.15 ± 6.7 J/K/mol | 140.35 ± 7.6 J/K/mol | 145.39 ± 7.6 J/K/mol | 150.43 ± 7.6 J/K/mol | 155.47 ± 8.4 J/K/mol | 162.2 ± 8.4 J/K/mol | 173.96 ± 9.2 J/K/mol | CC(F)(F)F [1,1,1-trifluoroethane] | 189.93 ± 10 J/K/mol and 192.45 ± 10 J/K/mol | 224.39 ± 12 J/K/mol
2 | 106.65 ± 5.7 J/K/mol | 109.77 ± 5.7 J/K/mol | 113.41 ± 5.7 J/K/mol | 119.65 ± 6.2 J/K/mol | 125.9 ± 6.8 J/K/mol | 138.9 ± 7.3 J/K/mol | 164.39 ± 8.3 J/K/mol | FCF [difluoromethane] |  | 

Row | SMILES | molar heat capacity at constant pressure (310 K) | molar heat capacity at constant pressure (315 K) | molar heat capacity at constant pressure (320 K) | molar heat capacity at constant pressure (325 K) | molar heat capacity at constant pressure (330 K) | molar heat capacity at constant pressure (335 K) | molar heat capacity at constant pressure (340 K) | molar heat capacity at constant pressure (345 K) | molar heat capacity at constant pressure (350 K)
3 | FC(F)C(F)(F)F [pentafluoroethane] | 154.83 ± 8.4 J/K/mol | 159.63 ± 8.4 J/K/mol | 163.23 ± 8.4 J/K/mol | 171.63 ± 8.4 J/K/mol | 182.43 ± 9.6 J/K/mol and 183.63 ± 9.6 J/K/mol | 193.23 ± 9.6 J/K/mol | 217.24 ± 11 J/K/mol and 212.44 ± 11 J/K/mol | 242.44 ± 13 J/K/mol | 282.05 ± 14 J/K/mol
